Experimental data: the supplement of paper PMC5908809

Legend:
[1] = test system: normal NK cells expanded with K562-aAPC; experiment: percent inhibition of viability; higher = more inhibition; conditions: 72 h, IL-2 2.5 ng/mL
Experimental: (§1)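 Drug sensitivity and resistance testing on K562-aAPC-expanded normal NK cells: 5 concentrations (10-fold steps over a 10,000-fold range), 72 h at 37 °C, viability by CellTiter-Glo normalised to DMSO and benzethonium chloride controls; DSS from the fitted curve.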

[2] = test system: DERL-7 (IL-2 2.5 ng/mL); experiment: as above; conditions: 72 h
[3] = test system: IMC-1 (IL-2 20 ng/mL); experiment: as above; conditions: 72 h
[4] = test system: KAI3 (IL-2 2.5 ng/mL); experiment: as above; conditions: 72 h
[5] = test system: KHYG-1 (IL-2 2.5 ng/mL); experiment: as above; conditions: 72 h
[6] = test system: NK-92 (IL-2 2.5 ng/mL); experiment: as above; conditions: 72 h
[7] = test system: NK-YS (IL-2 2.5 ng/mL); experiment: as above; conditions: 72 h
[8] = test system: NKL (IL-2 2.5 ng/mL); experiment: as above; conditions: 72 h
[9] = test system: SNK-6 (IL-2 2.5 ng/mL); experiment: as above; conditions: 72 h
[10] = test system: YT (IL-2 2.5 ng/mL); experiment: as above; conditions: 72 h
[11] = test system: normal primary NK cells, pool 1 (3 donors) (IL-2 2.5 ng/mL); experiment: as above; conditions: 72 h
[12] = test system: normal primary NK cells, pool 1 (3 donors), resting (IL-2 0 ng/mL); experiment: as above; conditions: 72 h
[13] = test system: normal primary NK cells, pool 2 (3 donors) (IL-2 2.5 ng/mL); experiment: as above; conditions: 72 h
[14] = test system: normal primary NK cells, pool 3 (3 donors) (IL-2 2.5 ng/mL); experiment: as above; conditions: 72 h
[15] = test system: normal NK cells expanded with K562-aAPC; experiment: drug sensitivity score (DSS) (DSS units); higher = more sensitive; extreme values may be limits of the assay; conditions: 72 h; IL-2 2.5 ng/mL
Experimental: as §1

[16] = test system: DERL-7 (IL-2 2.5 ng/mL); experiment: as above; conditions: 72 h
[17] = test system: IMC-1 (IL-2 20 ng/mL); experiment: as above; conditions: 72 h
[18] = test system: KAI3 (IL-2 2.5 ng/mL); experiment: as above; conditions: 72 h
[19] = test system: KHYG-1 (IL-2 2.5 ng/mL); experiment: as above; conditions: 72 h
[20] = test system: NK-92 (IL-2 2.5 ng/mL); experiment: as above; conditions: 72 h
[21] = test system: NK-YS (IL-2 2.5 ng/mL); experiment: as above; conditions: 72 h
[22] = test system: NKL (IL-2 2.5 ng/mL); experiment: as above; conditions: 72 h
[23] = test system: SNK-6 (IL-2 2.5 ng/mL); experiment: as above; conditions: 72 h
[24] = test system: YT (IL-2 2.5 ng/mL); experiment: as above; conditions: 72 h
[25] = test system: normal primary NK cells, pool 1 (3 donors) (IL-2 2.5 ng/mL); experiment: as above; conditions: 72 h
[26] = test system: normal primary NK cells, pool 1 (3 donors), resting (IL-2 0 ng/mL); experiment: as above; conditions: 72 h
[27] = test system: normal primary NK cells, pool 2 (3 donors) (IL-2 2.5 ng/mL); experiment: as above; conditions: 72 h
[28] = test system: normal primary NK cells, pool 3 (3 donors) (IL-2 2.5 ng/mL); experiment: as above; conditions: 72 h

CNc1nc(-c2ccc3c(N)n[nH]c3c2)cc(N2C[C@@H](C(=O)NC3CCCCC3)CC[C@H]2C)n1 (max concentration tested 10000 nM)
percent inhibition of viability [%]
Conditions | 1 nM | 10 nM | 100 nM | 1000 nM | 10000 nM
[1] | -0.16 | 0.82 | 7.33 | 29 | 34.4
[2] | -6.71 | 4.6 | 17.5 | 62.3 | 73.1
[3] | -3.83 | -6.62 | -4.53 | -20.3 | -19.2
[4] | 5.2 | 2.8 | 14.8 | 12.4 | 22.3
[5] | 2.18 | -0.82 | 1.06 | 6.54 | 6.11
[6] | -8.7 | -9.38 | -10.8 | 12.7 | 15.9
[7] | -0.39 | 1.82 | 1.37 | 11.8 | 12.3
[8] | -8.02 | -17.1 | -8.23 | 7.46 | 19
[9] | -15.1 | -5.82 | -4.32 | -18.6 | -16.6
[10] | 0.91 | -0.65 | -0.96 | -0.24 | -1.61
[11] | -8.1 | -7.19 | -3.29 | 25.5 | 14.9
[12] | -13.3 | -12.7 | -3.91 | 21.5 | 9.91
[13] | -9.37 | -17 | -3.8 | 12.4 | 20.9
[14] | -9.17 | -11.9 | -6.95 | 18.4 | 14.4

Conditions | drug sensitivity score
[15] | 5.66
[16] | 13.6
[17] | 0
[18] | 2.49
[19] | 0
[20] | 1.22
[21] | 0.64
[22] | 1.31
[23] | 0
[24] | 0
[25] | 3.79
[26] | 2.84
[27] | 1.91
[28] | 2.05

COc1cc2ncnc(Oc3cccc(NC(=O)Nc4cc(C(C)(C)C(F)(F)F)on4)c3)c2cc1OC (max concentration tested 10000 nM)
percent inhibition of viability [%]
Conditions | 1 nM | 10 nM | 100 nM | 1000 nM | 10000 nM
[1] | -1.51 | -5.86 | -2.54 | 20.8 | 24.9
[2] | -5.16 | 6.23 | -3 | 4.56 | -7.99
[3] | -1.62 | -0.53 | 0.44 | -4.34 | 6.15
[4] | 0.98 | -5.32 | 2.9 | 6.52 | 22.6
[5] | -4.24 | 2.96 | 2.93 | 12.8 | 22.6
[6] | -0.01 | 2.35 | -2.76 | 14.8 | 28.1
[7] | -5.12 | -3.89 | 6.64 | 10.2 | 22.5
[8] | 4.1 | 2.39 | 15.8 | 41.7 | 42.7
[9] | -21 | -20.4 | -14.8 | -14.3 | -12
[10] | -6.09 | 0.07 | -0.35 | 27.3 | 17.8
[11] | -8.45 | 9.57 | -3.9 | 2.93 | 0.51
[12] | -30.4 | 6.49 | -14 | -6.06 | -6.31
[13] | -11.8 | 4.36 | -8.21 | -2.04 | -8.58
[14] | -10.2 | 8.96 | -2.46 | -8.5 | -3.67

Conditions | drug sensitivity score
[15] | 3.18
[16] | 0
[17] | 0
[18] | 1.44
[19] | 1.77
[20] | 2.92
[21] | 1.47
[22] | 9.3
[23] | 0
[24] | 4.37
[25] | 0
[26] | 0
[27] | 0
[28] | 0

CS(=O)(=O)N1CCc2c(-c3cnc(N)nc3)nc(N3CCOCC3)nc21 (max concentration tested 10000 nM)
percent inhibition of viability [%]
Conditions | 1 nM | 10 nM | 100 nM | 1000 nM | 10000 nM
[1] | -0.53 | -3.07 | 3.27 | 24.3 | 52.9
[2] | -3.09 | -4.08 | 3.85 | 42.4 | 85.6
[3] | -0.46 | 0.95 | 2.38 | -7.5 | -15.8
[4] | 7.02 | 7.63 | 15.1 | 29.3 | 51.8
[5] | 4.51 | -0.98 | -0.03 | 9.84 | 39.7
[6] | -5.62 | -3.32 | 15.7 | 40.8 | 55.8
[7] | 4.61 | 0.28 | 4.3 | 32.1 | 62.7
[8] | 14.7 | 9.02 | 17.7 | 40.3 | 71.3
[9] | -21.9 | -10.1 | -16.1 | 5.8 | 44.2
[10] | 2.76 | 1.12 | 1.06 | 26.2 | 75.4
[11] | -5.22 | -10.5 | 16.6 | 24.4 | 35.2
[12] | -25.7 | -37.9 | 3.84 | -1.15 | 14.8
[13] | -2.54 | -3.72 | -0.24 | 21.6 | 34.8
[14] | -11.3 | -9.29 | 13 | 19.5 | 28.9

Conditions | drug sensitivity score
[15] | 5.59
[16] | 9.77
[17] | 0
[18] | 7.4
[19] | 3.5
[20] | 9.23
[21] | 7.16
[22] | 10.4
[23] | 3.23
[24] | 7.87
[25] | 5.87
[26] | 0.17
[27] | 4.2
[28] | 4.2
